From paper PMC6944458, “Intracellular and in vivo evaluation of imidazo[2,1-b]thiazole-5-carboxamide anti-tuberculosis compounds” (PLoS ONE, 2020)
Values after ≈ are worked out from the molar mass of the structure shown. Where two headings read alike, the source gives them in different places.

Columns and labels:
[1] = Relative solubility by turbidity in microbiological medium; conditions: pH 6.8, aqueous buffer, kinetic from dmso stock, lowest concentration at which compound was insoluble (turbidity)
Experimental: The relative solubility of compounds was determined in microbiological medium using turbidity as a measure [27]. A serial dilution of compounds was prepared in DMSO and then transferred to microbiological medium at pH 6.8.

[2] = system: M. tuberculosis strain H37Rv-LUX; test: microbe, parasite or virus in culture; assay type: cell-based; conditions: Mycobacterium tuberculosis, read-out: LORA MIC
M. tuberculosis Erdman = test: Chronic Balb/c model of TB infection; assay type: in vivo, Balb/c mice; conditions: 200 mg/kg
H37Rv-Mtb = test: MIC against replicating H37Rv-Mtb in liquid media; assay type: cell-based, Mycobacterium tuberculosis; conditions: Mycobacterium tuberculosis, H37RV, 120 h, replicating, 5 days, OD590
CYP2C9 = target: T1, CYP2C9 (Homo sapiens, UniProt P11712); test: biochemical; assay type: in vitro ADME; conditions: human liver microsomes; read-out: Cytochrome P450 Inhibition IC50 CYP2C9
T1 construct: human liver microsomes were incubated with a probe substrate for each CYP isoform; from tissue; host or cells: human liver microsomes
Experimental: (§1) Compounds were tested for inhibition of six cytochrome P450 enzyme isoforms—CYP2B6, CYP2C8, CYP2C9, CYP2C19, CYP2D6 and CYP3A4 [27]. For each assay, human liver microsomes were incubated with a probe substrate for each CYP isoform in the presence of compound. Compounds were prepared as a 7-point dilution series in acetonitrile:DMSO (9:1). The final DMSO content in the reaction mixture was equal in all solutions used within an assay and was < 0.2%. Samples were run in duplicate.

CYP2C8 = target: T2, CYP2C8 (Homo sapiens, UniProt P10632); test: biochemical; assay type: in vitro ADME; conditions: human liver microsomes; read-out: Cytochrome P450 Inhibition IC50 CYP2C8
T2 construct: human liver microsomes were incubated with a probe substrate for each CYP isoform; from tissue; host or cells: human liver microsomes
Experimental: as §1

CYP2B6 = target: T3, CYP2B6 (Homo sapiens, UniProt P20813); test: biochemical; assay type: in vitro ADME; conditions: human liver microsomes; read-out: Cytochrome P450 Inhibition IC50 CYP2B6
T3 construct: human liver microsomes were incubated with a probe substrate for each CYP isoform; from tissue; host or cells: human liver microsomes
Experimental: as §1

CYP2C19 = target: T4, CYP2C19 (Homo sapiens, UniProt P33261); test: biochemical; assay type: in vitro ADME; conditions: human liver microsomes; read-out: Cytochrome P450 Inhibition IC50 CYP2C19
T4 construct: human liver microsomes were incubated with a probe substrate for each CYP isoform; from tissue; host or cells: human liver microsomes
Experimental: as §1

CYP2D6 = target: T5, CYP2D6 (Homo sapiens, UniProt P10635); test: biochemical; assay type: in vitro ADME; conditions: human liver microsomes; read-out: Cytochrome P450 Inhibition IC50 CYP2D6
T5 construct: human liver microsomes were incubated with a probe substrate for each CYP isoform; from tissue; host or cells: human liver microsomes
Experimental: as §1

CYP3A4 = target: T6, CYP3A4 (Homo sapiens, UniProt P08684); test: biochemical; assay type: in vitro ADME
T6 construct: human liver microsomes were incubated with a probe substrate for each CYP isoform; from tissue; host or cells: human liver microsomes
Experimental: as §1

in vitro [3] = conditions: human, Caco-2
in vivo = test: in vivo; parameters: species or system Balb/c mice
Experimental: ND-11543 was dissolved in 20% TPGS (d-α tocopheryl polyethylene glycol 1000 succinate) to give a fine white suspension which was dosed at 100, 300 and 500 mg/kg orally on three consecutive days, 3 mice per dose group. Mice were observed 10 min, 1, 2, 4 hr after dosing and then daily afterwards. During the observations, humane handling practices and animal welfare regulations were strictly followed.

[4] = system: M. tuberculosis GC1237 (Mtb-GFP) in Raw 264.7 macrophages; test: Intracellular mycobacterial replication assay in macrophages; assay type: cell-based; conditions: Mycobacterium tuberculosis, 120 h, 5 days, read-out: MIC, intracellular M. tuberculosis growth in macrophages
VERO cell line = test: Eukaryotic cytotoxicity (CellTiter-Glo); assay type: cell-based, African green monkey; conditions: Chlorocebus sabaeus, 48 h, 2-day incubation, read-out: VERO Toxicity IC50
Experimental: Cytotoxicity was tested against the African green monkey adult kidney cell line (VERO, ATCC CRL-1586) as described. Compounds were tested as 10-point, 3-fold serial dilutions in DMSO (final assay concentration of 1% DMSO) and viability was measured using CellTiter-Glo (Promega). Inhibition curves were fitted using the Levenberg–Marquardt algorithm. IC50 was defined as the concentration required to reduce cell viability by 50% after 2-day incubation.

Single dose plasma PK = assay type: in vivo, Balb/c mice
Experimental: Basic pharmacokinetic analysis was determined after a single dose of 200 mg/kg with and without the administration of 100 mg/kg of 1-aminobenzotriazole (ABT) (Sigma, #A3940) given 2 hr by gavage prior to ND-11543 administration. ABT (100 mg/kg dose) was administered by oral gavage in 0.5% (w/v) methyl cellulose 400 solution. ND-11543 (200 mg/kg dose) was prepared in 20% TPGS and dosed orally 2 hr after ABT administration. Female mice (6–8 week old Balb/c from Charles River) were rested one to two weeks before dosing. Blood was collected from the mice at time points of 0.5, 2, 4, 8, 12 and 24 hr after drug administration. Blood samples (< 100 μL each) for all time points were collected via the mandibular vein in plasma collector tubes, centrifuged and plasma (< 50 μL each) was frozen until further use. Plasma samples were analyzed by LC/MS to determine drug plasma levels.

in vitro [5] = assay type: in vitro ADME; conditions: human, s9, NADPH, 37°C
Experimental: Compounds were tested for microsomal stability using pooled human liver S9 microsomes. Microsomes were incubated with the test compound at 37°C in the presence of the co-factor NADPH. The reaction was terminated, the supernatant recovered, and test compounds quantified by LC-MS/MS. A fixed concentration of test compound was tested in duplicate at 5 timepoints and compound stability was expressed as a function of time. Human liver microsomes were purchased from Celsis (catalog number X008068).

[6] = system: CYP2B6, CYP2C8, CYP2C9, CYP2C19, CYP2D6, CYP3A4; test: in vitro; assay type: in vitro ADME; conditions: human; range over isoforms, >10 to >20; read-out: IC50 against all the major cytochrome P450 isoforms
Experimental: as §1

[7] = system: murine Raw 264.7 macrophages; conditions: mouse

T6 sequence (P08684 whole entry, canonical isoform): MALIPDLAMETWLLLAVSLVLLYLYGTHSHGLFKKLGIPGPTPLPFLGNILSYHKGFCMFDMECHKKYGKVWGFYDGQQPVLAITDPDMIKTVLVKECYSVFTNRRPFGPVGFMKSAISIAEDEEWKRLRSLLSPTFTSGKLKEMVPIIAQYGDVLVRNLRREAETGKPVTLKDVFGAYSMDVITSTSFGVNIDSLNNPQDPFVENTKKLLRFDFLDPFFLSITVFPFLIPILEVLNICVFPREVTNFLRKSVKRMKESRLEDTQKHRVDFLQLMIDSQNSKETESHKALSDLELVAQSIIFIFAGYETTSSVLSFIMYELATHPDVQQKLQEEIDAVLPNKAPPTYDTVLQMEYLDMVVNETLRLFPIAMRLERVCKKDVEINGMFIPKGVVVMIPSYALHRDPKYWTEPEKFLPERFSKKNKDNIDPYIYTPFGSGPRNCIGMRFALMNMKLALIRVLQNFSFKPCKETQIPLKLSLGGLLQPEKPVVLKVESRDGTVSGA
T5 sequence (P10635 whole entry, canonical isoform): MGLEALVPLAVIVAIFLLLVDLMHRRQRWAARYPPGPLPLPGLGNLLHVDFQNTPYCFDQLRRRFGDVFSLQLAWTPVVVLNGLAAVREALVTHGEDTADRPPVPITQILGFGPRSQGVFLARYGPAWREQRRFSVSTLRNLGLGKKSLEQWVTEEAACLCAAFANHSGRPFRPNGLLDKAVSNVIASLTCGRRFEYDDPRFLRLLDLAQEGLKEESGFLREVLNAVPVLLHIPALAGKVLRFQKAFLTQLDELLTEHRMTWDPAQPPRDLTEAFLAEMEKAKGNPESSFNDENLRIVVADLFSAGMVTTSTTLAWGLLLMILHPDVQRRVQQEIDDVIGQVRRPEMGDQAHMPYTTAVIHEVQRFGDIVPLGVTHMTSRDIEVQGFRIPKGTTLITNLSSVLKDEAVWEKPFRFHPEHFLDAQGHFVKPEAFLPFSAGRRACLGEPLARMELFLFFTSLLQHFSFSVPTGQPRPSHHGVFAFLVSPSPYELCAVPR
T2 sequence (P10632 whole entry, canonical isoform): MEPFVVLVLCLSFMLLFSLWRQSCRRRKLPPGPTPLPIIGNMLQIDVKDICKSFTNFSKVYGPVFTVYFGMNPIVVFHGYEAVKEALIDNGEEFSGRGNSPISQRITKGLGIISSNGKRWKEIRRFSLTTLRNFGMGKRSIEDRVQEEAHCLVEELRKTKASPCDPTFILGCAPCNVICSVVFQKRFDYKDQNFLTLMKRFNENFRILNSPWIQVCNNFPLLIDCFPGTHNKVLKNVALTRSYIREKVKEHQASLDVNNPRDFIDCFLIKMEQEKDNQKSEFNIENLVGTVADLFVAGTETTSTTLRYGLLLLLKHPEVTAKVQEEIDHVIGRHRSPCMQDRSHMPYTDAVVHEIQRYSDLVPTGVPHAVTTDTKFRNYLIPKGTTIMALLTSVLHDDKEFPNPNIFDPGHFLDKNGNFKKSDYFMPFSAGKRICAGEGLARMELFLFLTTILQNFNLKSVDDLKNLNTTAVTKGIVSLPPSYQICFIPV
T4 sequence (P33261 whole entry, canonical isoform): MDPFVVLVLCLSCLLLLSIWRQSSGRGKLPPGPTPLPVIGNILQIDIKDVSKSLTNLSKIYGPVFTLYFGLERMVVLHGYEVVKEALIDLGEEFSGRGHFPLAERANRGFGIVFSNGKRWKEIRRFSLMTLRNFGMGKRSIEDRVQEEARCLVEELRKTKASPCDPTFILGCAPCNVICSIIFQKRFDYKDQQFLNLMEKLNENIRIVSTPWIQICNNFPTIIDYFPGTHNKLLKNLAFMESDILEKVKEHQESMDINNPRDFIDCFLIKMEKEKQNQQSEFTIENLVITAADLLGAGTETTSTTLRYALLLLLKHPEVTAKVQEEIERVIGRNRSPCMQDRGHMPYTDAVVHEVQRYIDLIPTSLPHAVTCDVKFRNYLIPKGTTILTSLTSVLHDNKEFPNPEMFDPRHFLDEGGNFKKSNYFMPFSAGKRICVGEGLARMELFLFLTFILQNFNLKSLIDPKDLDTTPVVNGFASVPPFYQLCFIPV
T3 sequence (P20813 whole entry, canonical isoform): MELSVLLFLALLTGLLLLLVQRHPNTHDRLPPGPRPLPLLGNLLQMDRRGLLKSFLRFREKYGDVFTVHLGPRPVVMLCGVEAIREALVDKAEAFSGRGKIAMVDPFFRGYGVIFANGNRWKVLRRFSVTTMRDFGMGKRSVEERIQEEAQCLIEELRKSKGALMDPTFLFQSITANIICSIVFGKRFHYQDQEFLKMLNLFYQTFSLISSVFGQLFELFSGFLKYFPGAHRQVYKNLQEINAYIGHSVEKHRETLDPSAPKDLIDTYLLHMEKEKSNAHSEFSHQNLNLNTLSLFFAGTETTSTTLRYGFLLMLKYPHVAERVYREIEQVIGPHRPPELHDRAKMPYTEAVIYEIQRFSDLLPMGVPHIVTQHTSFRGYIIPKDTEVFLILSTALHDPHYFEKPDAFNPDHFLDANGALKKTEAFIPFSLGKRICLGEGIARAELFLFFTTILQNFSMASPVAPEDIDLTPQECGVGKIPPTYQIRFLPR
T1 sequence (P11712 whole entry, canonical isoform): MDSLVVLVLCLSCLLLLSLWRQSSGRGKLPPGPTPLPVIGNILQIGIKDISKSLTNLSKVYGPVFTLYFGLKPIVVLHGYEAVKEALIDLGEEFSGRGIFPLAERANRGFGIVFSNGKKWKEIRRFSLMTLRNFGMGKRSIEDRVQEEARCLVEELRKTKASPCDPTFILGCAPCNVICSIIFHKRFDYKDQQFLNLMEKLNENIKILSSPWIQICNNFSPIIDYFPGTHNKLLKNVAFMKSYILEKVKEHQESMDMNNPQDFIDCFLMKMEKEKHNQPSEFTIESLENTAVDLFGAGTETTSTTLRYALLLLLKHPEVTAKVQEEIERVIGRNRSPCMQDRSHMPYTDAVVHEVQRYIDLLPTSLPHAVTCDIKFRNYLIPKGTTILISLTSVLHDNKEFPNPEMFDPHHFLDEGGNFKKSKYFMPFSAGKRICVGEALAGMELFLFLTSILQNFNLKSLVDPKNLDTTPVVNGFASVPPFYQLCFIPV

For Cc1cn2c(C(=O)NCc3ccc(N4CCN(c5ccc(C(F)(F)F)cn5)CC4)c(F)c3)c(C)nc2s1 [ND-11543, N-(3-fluoro-4-(4-(5-(trifluoromethyl)pyridin-2-yl)piperazin-1-yl)benzyl)-2,6-dimethylimidazo[2,1-b]thiazole-5-carboxamide], which solubility [1] is on record?
The solubility was 50 µM (≈ 26.6 µg/mL).

What about the MIC [2] of the same compound?
Its MIC is 1.1 µM (≈ 0.586 µg/mL).

What about the “Log reduction vs Control (Lung)” value (M. tuberculosis Erdman; 4 weeks, without ABT) of the same compound?
The value was 0.30 log10 CFU.

What about the “Log reduction vs Control (Spleen)” value (M. tuberculosis Erdman; 4 weeks, without ABT) of the same compound?
The value was 0.36 log10 CFU.

What about the “Lung Log10 CFU ±SEM” value (M. tuberculosis Erdman; ERDMAN, 672 h) of the same compound?
Its value is 5.49 ± 0.08 Log10 CFU.

What about the “Spleen Log10 CFU ±SEM” value (M. tuberculosis Erdman; ERDMAN, 672 h) of the same compound?
The value was 4.64 ± 0.11 Log10 CFU.

And the MIC (H37Rv-Mtb)?
Its MIC is 8 nM (≈ 0.00426 µg/mL).

And the IC50 (CYP2C9)?
The IC50 was 10.2 µM.

And the IC50 (CYP2C8)?
Its IC50 is 18.4 µM.

And the IC50 (CYP2B6)?
Its IC50 is > 20 µM.

And the IC50 (CYP2C19)?
The IC50 was > 20 µM.

What about the IC50 (CYP2D6) of the same compound?
The IC50 was > 20 µM.

What about the IC50 (CYP3A4; DDI assay including midazolam, read-out: Cytochrome P450 Inhibition IC50 CYP3A4 (midazolam)) of the same compound?
Its IC50 is > 20 µM.

What about the IC50 (CYP3A4; DDI assay including tetosterone, read-out: Cytochrome P450 Inhibition IC50 CYP3A4 (tetosterone)) of the same compound?
Its IC50 is > 20 µM.

What about the Papp A→B at 1 h (in vitro [3]) of the same compound?
Its Papp A→B at 1 h is 0.376 ×10⁻⁶ cm/s.

What about the Papp A→B at 2 h (in vitro [3]) of the same compound?
The Papp A→B at 2 h was 0.731 ×10⁻⁶ cm/s.

What about the Papp B→A at 1 h (in vitro [3]) of the same compound?
The Papp B→A at 1 h was 1.09 ×10⁻⁶ cm/s.

And the Papp B→A at 2 h (in vitro [3])?
Its Papp B→A at 2 h is 0.758 ×10⁻⁶ cm/s.

What about the efflux ratio (in vitro [3]) of the same compound?
Its efflux ratio is 2.23.

And the MTD (in vivo; female, Balb/c, mouse, in vivo, mice, oral, three consecutive daily doses, read-out: Maximum Tolerated Dose, MTD)?
Its MTD is > 500 mg/kg.

What about the Acute toxicity observation (in vivo; mice, 100, 300 and 500 mg/kg oral) of the same compound?
Its Acute toxicity observation is “No acute toxicity was observed”.

And the MIC [4]?
The MIC was 0.0625 µM (≈ 0.0333 µg/mL).

And the IC50 (VERO cell line)?
Its IC50 is > 50 µM.

What about the “AUC(0–24)/Dose” value (Single dose plasma PK; 200 mg/kg oral, without ABT) of the same compound?
Its value is 58.5 ng·h/mL/mg/kg.

And the Cmax/Dose (Single dose plasma PK; 200 mg/kg oral, without ABT)?
Its Cmax/Dose is 3.22 ng/mL/mg/kg.

And the “Relative Bioavailability [(TA+ABT) / TA]” value (Single dose plasma PK; female, Balb/c, mouse, in vivo)?
The value was 318.25.

And the half-life (Single dose plasma PK; female, Balb/c, mouse, plasma, 200 mg/kg oral, without ABT)?
Its half-life is > 1440 min.

And the microsomal CLint (in vitro [5]; read-out: Human liver S9 Microsomes CL)?
Its microsomal CLint is 81.3 µL/min/mg.

What about the half-life (in vitro [5]; read-out: Human liver S9 Microsomes T ½) of the same compound?
The half-life was 28.4 min.

And the IC50 [6]?
The IC50 was > 10 µM.

And the “Macrophage toxicity concentration relative to MIC” value [7]?
Its value is 4 and 8-fold higher than their MIC.
